Test results taken from ChEMBL document CHEMBL1124186, “Synthesis and evaluation of tylosin-related macrolides modified at the aldehyde function: a new series of orally effective antibiotics” (1988).
In brackets after ≈: the same amount, converted by molar mass.

Assays:
Streptococcus pyogenes [1] = test: In vivo effective dose against experimental infections in rodent caused by Streptococcus pyogenes C203 when administered sc; type: functional
Enterococcus faecium = test: In vitro antimicrobial activity against Streptococcus faecium X66; type: functional, streptococcus fae-cium
[2] = tested on: Staphylococcus epidermidis; test: In vitro antimicrobial activity against Staphylococcus epidermidis EPI1; type: functional
Streptococcus pyogenes [3] = test: In vitro antimicrobial activity against Streptococcus pyogenes C203; type: functional
Streptococcus pyogenes [4] = test: In vivo effective dose against experimental infections in rodent caused by Streptococcus pyogenes C203 when administered orally; type: functional; settings: po
Staphylococcus aureus = test: In vitro antimicrobial activity against Staphylococcus aureus X1; type: functional
Streptococcus pneumoniae = test: In vitro antimicrobial activity against Streptococcus pneumoniae; type: functional
Haemophilus influenzae = test: In vitro antimicrobial activity against Haemophilus influenzae.; type: functional
[5] = tested on: Peptostreptococcus anaerobius; test: In vitro antimicrobial activity against anaerobic bacteria eubacterium peptostreptococcus anaerobius 1428,; type: functional
Clostridium perfringens = test: In vitro antimicrobial activity against anaerobic bacteria clostridium perfringens 81,; type: functional
[6] = tested on: Prevotella melaninogenica; test: In vitro antimicrobial activity against anaerobic bacteria bacteroides melaninogenicus 1856,; type: functional
[7] = In vitro antimicrobial activity against anaerobic bacteria peptostreptococcus intermedius 1264; type: functional
Clostridioides difficile = test: In vitro antimicrobial activity against anaerobic bacteria Clostridium difficile 2994; type: functional
Eikenella corrodens = test: In vitro antimicrobial activity against anaerobic bacteria bacteroides corrodens 1874; type: functional
[8] = tested on: Prevotella melaninogenica; test: In vitro antimicrobial activity against anaerobic bacteria bacteroides melaninogenicus 2736; type: functional
Bacteroides fragilis [9] = test: In vitro antimicrobial activity against anaerobic bacteria bacteroides fragilis 1877; type: functional
[10] = tested on: Fusobacterium necrophorum; test: In vitro antimicrobial activity against anaerobic bacteria usobacterium necrophorum 6054A; type: functional
Fusobacterium = test: In vitro antimicrobial activity against anaerobic bacteria fusobacterium symbiosum 1470; type: functional
Cutibacterium acnes = test: In vitro antimicrobial activity against anaerobic bacteria propionibacterium acnes 79; type: functional
[11] = tested on: Peptoniphilus asaccharolyticus; test: In vitro antimicrobial activity against anaerobic bacteria peptococcus asaccharolyticus 1302; type: functional
Bacteroides fragilis [12] = test: In vitro antimicrobial activity against anaerobic bacteria bacteroides fragilis 111; type: functional
[13] = tested on: Bacteroides thetaiotaomicron; test: In vitro antimicrobial activity against anaerobic bacteria bacteroides thetaiotaomicron 1438; type: functional
Phocaeicola vulgatus = test: In vitro antimicrobial activity against anaerobic bacteria bacteroides vulgatus 1211; type: functional
Anaerococcus prevotii = test: In vitro antimicrobial activity against anaerobic bacteria peptococcus prevoti 1281; type: functional
Bacteroides fragilis [14] = test: In vitro antimicrobial activity against anaerobic bacteria bacteroides fragilis 1936B,; type: functional
Collinsella aerofaciens = test: In vitro antimicrobial activity against anaerobic bacteria eubacterium aerofaciens 1235; type: functional
Clostridium septicum = test: In vitro antimicrobial activity against anaerobic bacteria clostridium septicum 1128; type: functional
Chlamydia trachomatis = test: In vitro antimicrobial activity against chlamydia trachomatis.; type: functional

SMILES	ED50 (Streptococcus pyogenes [1]) [mg/kg]	MIC (Enterococcus faecium) [µg/mL]	MIC [2] [µg/mL]	MIC (Streptococcus pyogenes [3]) [µg/mL]	ED50 (Streptococcus pyogenes [4]) [mg/kg]	MIC (Staphylococcus aureus) [µg/mL]	MIC (Streptococcus pneumoniae) [µg/mL]	MIC (Haemophilus influenzae) [µg/mL]	further results
CC[C@H]1OC(=O)C[C@@H](O)[C@H](C)[C@@H](O[C@@H]2O[C@H](C)[C@@H](O)[C@H](N(C)C)[C@H]2O)[C@@H](CCOS(=O)(=O)c2ccc(C)cc2)C[C@@H](C)C(=O)/C=C/C(C)=C/[C@@H]1CO[C@@H]1O[C@H](C)[C@@H](O)[C@@H](OC)[C@H]1OC	3.1	8 (≈ 8.62 µM)	0.5 (≈ 0.539 µM)	1 (≈ 1.08 µM)	5	0.5 (≈ 0.539 µM)	1 (≈ 1.08 µM)	32 (≈ 34.5 µM)	–
CC[C@H]1OC(=O)C[C@@H](O)[C@H](C)[C@@H](O[C@@H]2O[C@H](C)[C@@H](O)[C@H](N(C)C)[C@H]2O)[C@@H](CCOc2ncnc3ccccc23)C[C@@H](C)C(=O)/C=C/C(C)=C/[C@@H]1CO[C@@H]1O[C@H](C)[C@@H](O)[C@@H](OC)[C@H]1OC	5.4	4 (≈ 4.43 µM)	0.25 (≈ 0.277 µM)	0.5 (≈ 0.554 µM)	> 50	0.25 (≈ 0.277 µM)	0.5 (≈ 0.554 µM)	16 (≈ 17.7 µM)	–
CC[C@H]1OC(=O)C[C@@H](O)[C@H](C)[C@@H](O[C@@H]2O[C@H](C)[C@@H](O)[C@H](N(C)C)[C@H]2O)[C@@H](CCN2CCCCCCC2)C[C@@H](C)C(=O)/C=C/C(C)=C/[C@@H]1CO[C@@H]1O[C@H](C)[C@@H](O)[C@@H](O)[C@H]1OC	1.8	16 (≈ 18.7 µM)	1 (≈ 1.17 µM)	0.5 (≈ 0.585 µM)	100	1 (≈ 1.17 µM)	0.5 (≈ 0.585 µM)	32 (≈ 37.4 µM)	–
CC[C@H]1OC(=O)C[C@@H](O)[C@H](C)[C@@H](O[C@@H]2O[C@H](C)[C@@H](O)[C@H](N(C)C)[C@H]2O)[C@@H](CCOc2ccc(OC(C)=O)cc2)C[C@@H](C)C(=O)/C=C/C(C)=C/[C@@H]1CO	> 30	2 (≈ 2.73 µM)	0.5 (≈ 0.681 µM)	1 (≈ 1.36 µM)	> 100	1 (≈ 1.36 µM)	0.5 (≈ 0.681 µM)	16 (≈ 21.8 µM)	–
CC[C@H]1OC(=O)C[C@@H](O)[C@H](C)[C@@H](O[C@@H]2O[C@H](C)[C@@H](O)[C@H](N(C)C)[C@H]2O)[C@@H](CCNCCc2ccccc2)C[C@@H](C)C(=O)/C=C/C(C)=C/[C@@H]1CO	7.2	8 (≈ 11.4 µM)	4 (≈ 5.69 µM)	2 (≈ 2.85 µM)	> 100	4 (≈ 5.69 µM)	1 (≈ 1.42 µM)	8 (≈ 11.4 µM)	–
CC[C@H]1OC(=O)C[C@@H](O)[C@H](C)[C@@H](O[C@@H]2O[C@H](C)[C@@H](O[C@H]3C[C@@](C)(O)[C@@H](O)[C@H](C)O3)[C@H](N(C)C)[C@H]2O)[C@@H](CCNCCc2ccccc2)C[C@@H](C)C(=O)/C=C/C(C)=C/[C@@H]1CO[C@@H]1O[C@H](C)[C@@H](O)[C@@H](OC)[C@H]1OC	9.1	128 (≈ 125 µM)	2 (≈ 1.96 µM)	1 (≈ 0.979 µM)	76	1 (≈ 0.979 µM)	8 (≈ 7.83 µM)	64 (≈ 62.7 µM)	–
CC[C@H]1OC(=O)C[C@@H](O)[C@H](C)[C@@H](O[C@@H]2O[C@H](C)[C@@H](O)[C@H](N(C)C)[C@H]2O)[C@@H](CCOc2cccnc2)C[C@@H](C)C(=O)/C=C/C(C)=C/[C@@H]1CO[C@@H]1O[C@H](C)[C@@H](O)[C@@H](OC)[C@H]1OC	3.9	16 (≈ 18.8 µM)	0.5 (≈ 0.588 µM)	2 (≈ 2.35 µM)	50	0.5 (≈ 0.588 µM)	2 (≈ 2.35 µM)	16 (≈ 18.8 µM)	–
CC[C@H]1C[C@@H](C)C(=O)/C=C/C(C)=C/[C@H](CO)[C@@H](CC)OC(=O)C[C@@H](O)[C@H](C)[C@H]1O[C@@H]1O[C@H](C)[C@@H](O)[C@H](N(C)C)[C@H]1O	> 30	16 (≈ 27.4 µM)	8 (≈ 13.7 µM)	8 (≈ 13.7 µM)	75	4 (≈ 6.85 µM)	8 (≈ 13.7 µM)	32 (≈ 54.8 µM)	MIC [5]: > 8 µg/mL; MIC (Clostridium perfringens): 2 µg/mL (≈ 3.43 µM); MIC [6]: > 8 µg/mL; MIC [7]: > 8 µg/mL; MIC (Clostridioides difficile): 2 µg/mL (≈ 3.43 µM); MIC (Eikenella corrodens): > 8 µg/mL; MIC [8]: > 8 µg/mL; MIC (Bacteroides fragilis [9]): > 8 µg/mL; MIC [10]: 8 µg/mL (≈ 13.7 µM); MIC (Fusobacterium): > 8 µg/mL; MIC (Cutibacterium acnes): 2 µg/mL (≈ 3.43 µM); MIC [11]: > 8 µg/mL; MIC (Bacteroides fragilis [12]): > 8 µg/mL; MIC [13]: > 8 µg/mL; MIC (Phocaeicola vulgatus): > 8 µg/mL; MIC (Anaerococcus prevotii): > 8 µg/mL; MIC (Bacteroides fragilis [14]): > 8 µg/mL; MIC (Collinsella aerofaciens): 2 µg/mL (≈ 3.43 µM); MIC (Clostridium septicum): 2 µg/mL (≈ 3.43 µM); MIC (Chlamydia trachomatis): 0.5 µg/mL (≈ 0.857 µM)
CC[C@H]1OC(=O)C[C@@H](O)[C@H](C)[C@@H](O[C@@H]2O[C@H](C)[C@@H](O)[C@H](N(C)C)[C@H]2O)[C@@H](CCOc2ccc(CO)cc2)C[C@@H](C)C(=O)/C=C/C(C)=C/[C@@H]1CO[C@@H]1O[C@H](C)[C@@H](O)[C@@H](OC)[C@H]1OC	5	16 (≈ 18.2 µM)	0.5 (≈ 0.568 µM)	0.5 (≈ 0.568 µM)	44	0.5 (≈ 0.568 µM)	2 (≈ 2.27 µM)	64 (≈ 72.7 µM)	–
CC[C@H]1OC(=O)C[C@@H](O)[C@H](C)[C@@H](O[C@@H]2O[C@H](C)[C@@H](O)[C@H](N(C)C)[C@H]2O)[C@@H](CCBr)C[C@@H](C)C(=O)/C=C/C(C)=C/[C@@H]1CO[C@@H]1O[C@H](C)[C@@H](O)[C@@H](OC)[C@H]1OC	4.5	8 (≈ 9.56 µM)	0.25 (≈ 0.299 µM)	0.12 (≈ 0.143 µM)	19	0.25 (≈ 0.299 µM)	2 (≈ 2.39 µM)	16 (≈ 19.1 µM)	–
CC[C@H]1OC(=O)C[C@@H](O)[C@H](C)[C@@H](O[C@@H]2O[C@H](C)[C@@H](O[C@H]3C[C@@](C)(O)[C@@H](O)[C@H](C)O3)[C@H](N(C)C)[C@H]2O)[C@@H](CCOc2ccccc2)C[C@@H](C)C(=O)/C=C/C(C)=C/[C@@H]1CO[C@@H]1O[C@H](C)[C@@H](O)[C@@H](O)[C@H]1OC	> 10	> 128	2 (≈ 2.04 µM)	4 (≈ 4.08 µM)	91	2 (≈ 2.04 µM)	32 (≈ 32.6 µM)	> 128	–
CC[C@H]1OC(=O)C[C@@H](O)[C@H](C)[C@@H](O[C@@H]2O[C@H](C)[C@@H](O)[C@H](N(C)C)[C@H]2O)[C@@H](CCOc2ccccc2)C[C@@H](C)C(=O)/C=C/C(C)=C/[C@@H]1CO[C@@H]1O[C@H](C)[C@@H](O)[C@@H](O)[C@H]1OC	3.2	4 (≈ 4.78 µM)	0.25 (≈ 0.299 µM)	0.25 (≈ 0.299 µM)	50	0.25 (≈ 0.299 µM)	1 (≈ 1.2 µM)	32 (≈ 38.3 µM)	–
CC[C@H]1OC(=O)C[C@@H](O)[C@H](C)[C@@H](O[C@@H]2O[C@H](C)[C@@H](O)[C@H](N(C)C)[C@H]2O)[C@@H](CCN)C[C@@H](C)C(=O)/C=C/C(C)=C/[C@@H]1CO[C@@H]1O[C@H](C)[C@@H](O)[C@@H](OC)[C@H]1OC	> 10	128 (≈ 166 µM)	8 (≈ 10.3 µM)	32 (≈ 41.4 µM)	> 100	4 (≈ 5.17 µM)	32 (≈ 41.4 µM)	128 (≈ 166 µM)	–
